Measured values reported in PubChem BioAssay (NCI).
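Values below derive from 48-hour exposures of cells grown in 96-well plates, with endpoints linearly interpolated between the two concentrations bracketing the appropriate inhibition level. GI50 = concentration required for 50% inhibition of growth. TGI is the concentration that stops growth completely.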

Columns and labels:
Assay in all cases: inhibition of tumour cell growth, NCI panel, 48 h
[1] = test system: 786-0 renal
[2] = test system: A498 renal
[3] = test system: A549 NSCLC
[4] = test system: ACHN renal
[5] = test system: BT-549 breast
[6] = test system: CAKI-1 renal
[7] = test system: CCRF-CEM leukemia
[8] = test system: COLO 205 colon
[9] = test system: DU-145 prostate
[10] = test system: EKVX NSCLC
[11] = test system: HCC-2998 colon
[12] = test system: HCT-116 colon
[13] = test system: HCT-15 colon
[14] = test system: HL-60(TB) leukemia
[15] = test system: HOP-62 NSCLC
[16] = test system: HOP-92 NSCLC
[17] = test system: HS 578T breast
[18] = test system: HT29 colon
[19] = test system: IGROV1 ovarian
[20] = test system: K-562 leukemia
[21] = test system: KM12 colon
[22] = test system: LOX IMVI melanoma
[23] = test system: M14 melanoma
[24] = test system: MALME-3M melanoma
[25] = test system: MCF7 breast
[26] = test system: MDA-MB-231 breast
[27] = test system: MDA-MB-435
[28] = test system: MOLT-4 leukemia
[29] = test system: NCI-H226 lung
[30] = test system: NCI-H23 lung
[31] = test system: NCI-H460 lung
[32] = test system: NCI-H522 lung
[33] = test system: NCI/ADR-RES ovarian
[34] = test system: OVCAR-3 ovarian
[35] = test system: OVCAR-4 ovarian
[36] = test system: OVCAR-5 ovarian
[37] = test system: OVCAR-8 ovarian
[38] = test system: PC-3 prostate
[39] = test system: RPMI-8226 leukemia
[40] = test system: RXF 393 renal
[41] = test system: SF-268 CNS
[42] = test system: SF-295 CNS
[43] = test system: SF-539 CNS
[44] = test system: SK-MEL-2 melanoma
[45] = test system: SK-MEL-28 melanoma
[46] = test system: SK-MEL-5 melanoma
[47] = test system: SK-OV-3 ovarian
[48] = test system: SN12C renal
[49] = test system: SNB-19 CNS
[50] = test system: SNB-75 CNS
[51] = test system: SR leukemia
[52] = test system: SW-620 colon
[53] = test system: T-47D breast
[54] = test system: TK-10 renal
[55] = test system: U251 CNS
[56] = test system: UACC-257 melanoma
[57] = test system: UACC-62 melanoma
[58] = test system: UO-31 renal

`Cc1[nH]c2ccccc2c1CCCO` was tested, and the GI50 [1] was over 100 µM, the TGI [1] was over 100 µM and the GI50 [2] was over 100 µM. The TGI [2] was over 100 µM, the GI50 [3] was over 100 µM and the TGI [3] was over 100 µM. It also gave a GI50 [4] of over 100 µM, a TGI [4] of over 100 µM and a GI50 [5] of over 100 µM. The TGI [5] was over 100 µM, the GI50 [6] was over 100 µM and the TGI [6] was over 100 µM. The GI50 [7] was over 100 µM, the TGI [7] was over 100 µM and the GI50 [8] was over 100 µM. For the same compound, the TGI [8] was over 100 µM, the GI50 [9] was over 100 µM and the TGI [9] was over 100 µM. The GI50 [10] was over 100 µM, the TGI [10] was over 100 µM and the GI50 [11] was over 100 µM. The TGI [11] was over 100 µM, the GI50 [12] was over 100 µM and the TGI [12] was over 100 µM. It also gave a GI50 [13] of over 100 µM, a TGI [13] of over 100 µM and a GI50 [14] of over 100 µM. The TGI [14] was over 100 µM, the GI50 [15] was over 100 µM and the TGI [15] was over 100 µM. The GI50 [16] was over 100 µM, the TGI [16] was over 100 µM and the GI50 [17] was 54.9 µM. The TGI [17] was over 100 µM, the GI50 [18] was over 100 µM and the TGI [18] was over 100 µM. For the same compound, the GI50 [19] was 82.9 µM, the TGI [19] was over 100 µM and the GI50 [20] was over 100 µM. It also gave a TGI [20] of over 100 µM, a GI50 [21] of over 100 µM and a TGI [21] of over 100 µM. The GI50 [22] was over 100 µM, the TGI [22] was over 100 µM and the GI50 [23] was over 100 µM. For the same compound, the TGI [23] was over 100 µM, the GI50 [24] was over 100 µM and the TGI [24] was over 100 µM. For the same compound, the GI50 [25] was over 100 µM, the TGI [25] was over 100 µM and the GI50 [26] was over 100 µM. The TGI [26] was over 100 µM, the GI50 [27] was over 100 µM and the TGI [27] was over 100 µM. The GI50 [28] was over 100 µM, the TGI [28] was over 100 µM and the GI50 [29] was over 100 µM. It also gave a TGI [29] of over 100 µM, a GI50 [30] of over 100 µM and a TGI [30] of over 100 µM. The GI50 [31] was over 100 µM, the TGI [31] was over 100 µM and the GI50 [32] was over 100 µM. It also gave a TGI [32] of over 100 µM, a GI50 [33] of over 100 µM and a TGI [33] of over 100 µM. For the same compound, the GI50 [34] was over 100 µM, the TGI [34] was over 100 µM and the GI50 [35] was over 100 µM. The TGI [35] was over 100 µM, the GI50 [36] was over 100 µM and the TGI [36] was over 100 µM. The GI50 [37] was over 100 µM, the TGI [37] was over 100 µM and the GI50 [38] was over 100 µM. The TGI [38] was over 100 µM, the GI50 [39] was over 100 µM and the TGI [39] was over 100 µM. For the same compound, the GI50 [40] was over 100 µM, the TGI [40] was over 100 µM and the GI50 [41] was over 100 µM. It also gave a TGI [41] of over 100 µM, a GI50 [42] of over 100 µM and a TGI [42] of over 100 µM. The GI50 [43] was over 100 µM, the TGI [43] was over 100 µM and the GI50 [44] was over 100 µM. It also gave a TGI [44] of over 100 µM, a GI50 [45] of over 100 µM and a TGI [45] of over 100 µM. It also gave a GI50 [46] of over 100 µM, a TGI [46] of over 100 µM and a GI50 [47] of over 100 µM. The TGI [47] was over 100 µM, the GI50 [48] was over 100 µM and the TGI [48] was over 100 µM. The GI50 [49] was over 100 µM, the TGI [49] was over 100 µM and the GI50 [50] was over 100 µM. The TGI [50] was over 100 µM, the GI50 [51] was over 100 µM and the TGI [51] was over 100 µM. The GI50 [52] was over 100 µM, the TGI [52] was over 100 µM and the GI50 [53] was over 100 µM. It also gave a TGI [53] of over 100 µM, a GI50 [54] of over 100 µM and a TGI [54] of over 100 µM. The GI50 [55] was over 100 µM, the TGI [55] was over 100 µM and the GI50 [56] was over 100 µM. The TGI [56] was over 100 µM, the GI50 [57] was over 100 µM and the TGI [57] was over 100 µM. The GI50 [58] was 75.2 µM and the TGI [58] was over 100 µM.

Compound `COC1CC(O[C@H]2CC[C@@]3(C)[C@H](CC[C@@H]4[C@@H]3CC[C@]3(C)[C@@H](C5=CC(=O)OC5)[C@@H](OC(C)=O)C[C@]43O)C2)OC(C)C1O` (some centres not stated) has a GI50 [1] of under 0.01 µM, a TGI [1] of under 0.01 µM and a GI50 [2] of under 0.01 µM. It also gave a TGI [2] of under 0.0137 µM, a GI50 [3] of under 0.01 µM and a TGI [3] of under 0.01 µM. The GI50 [4] was under 0.01 µM, the TGI [4] was under 0.01 µM and the GI50 [5] was under 0.01 µM. It also gave a TGI [5] of under 0.01 µM, a GI50 [6] of under 0.01 µM and a TGI [6] of under 0.01 µM. It also gave a GI50 [7] of under 0.01 µM, a GI50 [8] of under 0.01 µM and a TGI [8] of under 0.01 µM. The GI50 [9] was under 0.01 µM, the TGI [9] was under 0.01 µM and the GI50 [10] was under 0.01 µM. The TGI [10] was under 0.01 µM, the GI50 [11] was under 0.01 µM and the TGI [11] was under 0.0187 µM. For the same compound, the GI50 [12] was under 0.01 µM, the TGI [12] was under 0.01 µM and the GI50 [13] was under 0.01 µM. It also gave a TGI [13] of under 0.01 µM, a GI50 [14] of under 0.01 µM and a TGI [14] of under 0.0331 µM. For the same compound, the GI50 [15] was under 0.01 µM, the TGI [15] was under 0.01 µM and the GI50 [16] was under 0.01 µM. The TGI [16] was under 0.01 µM, the GI50 [17] was under 0.01 µM and the TGI [17] was under 0.0145 µM. It also gave a GI50 [18] of under 0.01 µM, a TGI [18] of under 0.01 µM and a GI50 [19] of under 0.01 µM. It also gave a TGI [19] of under 0.01 µM, a GI50 [20] of under 0.01 µM and a TGI [20] of under 0.0135 µM. The GI50 [21] was under 0.01 µM, the TGI [21] was under 0.0106 µM and the GI50 [22] was under 0.01 µM. For the same compound, the TGI [22] was under 0.01 µM, the GI50 [23] was under 0.01 µM and the TGI [23] was under 0.0106 µM. The GI50 [24] was under 0.01 µM, the TGI [24] was under 0.01 µM and the GI50 [25] was under 0.01 µM. The TGI [25] was under 0.0117 µM, the GI50 [26] was under 0.01 µM and the TGI [26] was under 0.0155 µM. For the same compound, the GI50 [27] was under 0.01 µM, the TGI [27] was under 0.0109 µM and the GI50 [28] was under 0.01 µM. It also gave a TGI [28] of under 0.01 µM, a GI50 [29] of under 0.01 µM and a TGI [29] of under 0.01 µM. It also gave a GI50 [30] of under 0.01 µM, a TGI [30] of under 0.01 µM and a GI50 [31] of under 0.01 µM. The TGI [31] was under 0.01 µM, the GI50 [32] was under 0.01 µM and the TGI [32] was under 0.01 µM. For the same compound, the GI50 [33] was under 0.01 µM, the TGI [33] was under 0.01 µM and the GI50 [34] was under 0.01 µM. It also gave a TGI [34] of under 0.01 µM, a GI50 [35] of under 0.01 µM and a TGI [35] of under 0.01 µM. It also gave a GI50 [36] of under 0.01 µM, a TGI [36] of under 0.01 µM and a GI50 [37] of under 0.01 µM. For the same compound, the TGI [37] was under 0.01 µM, the GI50 [38] was under 0.01 µM and the TGI [38] was under 0.01 µM. The GI50 [39] was under 0.01 µM, the GI50 [40] was under 0.01 µM and the TGI [40] was under 0.01 µM. It also gave a GI50 [41] of under 0.01 µM, a TGI [41] of under 0.01 µM and a GI50 [42] of under 0.01 µM. The TGI [42] was under 0.01 µM, the GI50 [43] was under 0.01 µM and the TGI [43] was under 0.01 µM. For the same compound, the GI50 [44] was under 0.01 µM, the TGI [44] was under 0.0105 µM and the GI50 [45] was under 0.01 µM. It also gave a TGI [45] of under 0.01 µM, a GI50 [46] of under 0.01 µM and a TGI [46] of under 0.01 µM. It also gave a GI50 [47] of under 0.01 µM, a TGI [47] of under 0.01 µM and a GI50 [49] of under 0.01 µM. The TGI [49] was under 0.01 µM, the GI50 [50] was under 0.01 µM and the TGI [50] was under 0.01 µM. For the same compound, the GI50 [51] was under 0.01 µM, the GI50 [52] was under 0.01 µM and the TGI [52] was under 0.01 µM. The GI50 [53] was under 0.01 µM, the TGI [53] was under 0.01 µM and the GI50 [54] was under 0.01 µM. It also gave a TGI [54] of under 0.01 µM, a GI50 [55] of under 0.01 µM and a TGI [55] of under 0.01 µM. It also gave a GI50 [56] of under 0.01 µM, a TGI [56] of under 0.01 µM and a GI50 [57] of under 0.01 µM. It also gave a TGI [57] of under 0.01 µM, a GI50 [58] of under 0.01 µM and a TGI [58] of under 0.01 µM.
